The term inhibition denotes how much of the control response was suppressed.

Our source for the inhibition values is patent US12612371B2, “Sigma-1 receptor ligands and therapeutic uses thereof” (UNIVERSITE DE STRASBOURG, priority 2019, dated 2026).

SMILES strings stand for the structures.

This test concerns the target T1, sigma 1 (h) (Homo sapiens, UniProt Q99720).
T1 construct: incubating Jurkat cell membranes (10-20 mg protein per tube) with [^3H](+) pentazocine; endogenous in cells; host or cells: Jurkat cell membranes
The test is described as follows: σ1 binding assay ([3H](+)pentazocine displacement, Jurkat cell membranes). Particulars: [3H](+)pentazocine 15 nM, 37° C., 2 hours; for inhibition at 0.01 µM: compound at 10 nM, read-out: Sigma-1 receptor % inhibition 10 nM. The procedure: The σ1 binding assays were performed according to Ganapathy et al (Ganapathy, M. E. et al. (1999), J. Pharmacol. Exp. Ther., 28:251-260). The σ1 binding assay was carried out by incubating Jurkat cell membranes (10-20 mg protein per tube) with [^3H](+) pentazocine a selective S1R ligand (15 nM) and a range of concentration of tested compounds, at 37° C. for 2 hours in 5 mM tris/HCl buffer (pH=7.4). The inhibition of [3H]-(+)-pentazocine binding assay is mainly used to determine the inhibition constant (Ki) of potential SIR ligands. These assays are performed with a single concentration of [^3H]-(+)-pentazocine at a concentration near its KD and increasing concentrations of non-radioactive ligands.

T1 sequence (Q99720 whole entry): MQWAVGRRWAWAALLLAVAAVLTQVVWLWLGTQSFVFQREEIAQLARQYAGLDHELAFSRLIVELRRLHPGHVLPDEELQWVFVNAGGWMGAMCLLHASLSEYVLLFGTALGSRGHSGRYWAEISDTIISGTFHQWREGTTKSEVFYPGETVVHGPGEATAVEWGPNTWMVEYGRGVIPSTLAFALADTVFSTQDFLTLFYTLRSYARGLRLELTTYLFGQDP

For the compound `O=c1c(-c2ccccc2)ccnn1CCCCN1CCOCC1` [10b, 2-(4-morpholinobutyl)-4-phenylpyridazin-3(2H)-one], the inhibition at 0.01 µM worked out at 14.5%.
Still for that read-out and setting: next, `Cc1ncc(-c2ccccc2)c(=O)n1CCCCN1CCOCC1` [40a, 2-methyl-3-(4-morpholinobutyl)-5-phenylpyrimidin-4(3H)-one]: 1.4%; `O=c1c(-c2ccc(F)cc2)ccnn1CCCCN1CCOCC1` [11h, 4-(4-fluorophenyl)-2-(4-morpholinobutyl)pyridazin-3(2H)-one]: 12%.
Regarding `CN(CCO)CCCCn1nccc(-c2ccccc2)c1=O` [10p, 2-(4-((2-hydroxyethyl)(methyl)amino)butyl)-4-phenylpyridazin-3(2H)-one], the inhibition at 0.1 µM (compound at 100 nM, read-out: Sigma-1 receptor % inhibition 100 nM) worked out at 9.7%.
